# According to PMC10467108, “Of Seven New K^+ Channel Inhibitor Peptides of Centruroides bonito, α-KTx 2.24 Has a Picomolar Affinity for Kv1.2” (Toxins, 2023):
# “Also recorded” adds a separate entry of the source. Where two headings read alike, the source gives them in different places. Where a SMILES comes first, the peptide text is derived from it. Bridges are numbered along the chain shown (N, C = ends).
# What was measured:
# [1] = molecular target: Kv1.2 (Homo sapiens) (UniProt P16389); details: cited from earlier work
# Sequence of Kv1.2 (Homo sapiens) (P16389 whole entry): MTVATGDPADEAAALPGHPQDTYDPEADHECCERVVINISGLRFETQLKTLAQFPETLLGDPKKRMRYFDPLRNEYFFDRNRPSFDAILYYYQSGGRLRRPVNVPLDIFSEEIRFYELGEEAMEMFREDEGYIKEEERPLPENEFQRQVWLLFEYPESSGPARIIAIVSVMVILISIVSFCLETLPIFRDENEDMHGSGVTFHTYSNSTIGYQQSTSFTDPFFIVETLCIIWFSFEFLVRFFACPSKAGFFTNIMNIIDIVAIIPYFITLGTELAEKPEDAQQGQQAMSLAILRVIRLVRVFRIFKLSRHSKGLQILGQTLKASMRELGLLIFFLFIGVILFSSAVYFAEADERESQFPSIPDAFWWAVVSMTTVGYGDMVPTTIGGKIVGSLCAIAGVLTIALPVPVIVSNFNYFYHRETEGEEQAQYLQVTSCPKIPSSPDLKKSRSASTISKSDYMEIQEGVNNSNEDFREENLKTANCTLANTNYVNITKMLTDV
# [2] = molecular target: T1, Kv1.3 (Homo sapiens, UniProt P22001); assay: Whole-cell patch-clamp of Kv1.3 currents in PHA-activated human T lymphocytes; format: cell-based
# T1 construct: endogenous in cells
# T1 sequence (P22001 whole entry): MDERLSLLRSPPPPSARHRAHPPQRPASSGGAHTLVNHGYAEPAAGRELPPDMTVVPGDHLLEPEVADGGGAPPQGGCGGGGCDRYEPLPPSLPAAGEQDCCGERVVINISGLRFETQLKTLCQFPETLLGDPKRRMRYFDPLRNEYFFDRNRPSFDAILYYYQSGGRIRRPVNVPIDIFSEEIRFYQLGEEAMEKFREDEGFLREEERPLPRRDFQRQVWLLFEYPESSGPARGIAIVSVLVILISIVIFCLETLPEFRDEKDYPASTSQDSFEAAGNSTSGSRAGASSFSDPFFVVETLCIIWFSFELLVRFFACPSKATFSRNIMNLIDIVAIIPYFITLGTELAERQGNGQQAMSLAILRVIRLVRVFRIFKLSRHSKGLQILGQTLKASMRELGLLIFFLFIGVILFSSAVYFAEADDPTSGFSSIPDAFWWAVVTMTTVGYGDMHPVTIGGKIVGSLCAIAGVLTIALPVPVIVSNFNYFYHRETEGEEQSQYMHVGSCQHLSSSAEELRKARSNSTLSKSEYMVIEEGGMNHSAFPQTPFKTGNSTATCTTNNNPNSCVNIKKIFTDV
# Protocol: (§1) Macroscopic Kv1.1 and Kv1.2 currents were measured in transiently transfected CHO cells. For Kv1.3 current recording, human T lymphocytes were activated by Phytohemagglutinin A (PHA) to increase Kv1.3 channel expression, and micro-pipettes were filled with Ca^2+-free solution to prevent KCa3.1 channel activation. K^+ currents were evoked by applying 15-ms-long depolarization pulses to +50 mV from a holding potential of −120 mV except for Kv1.2, as it has highly variable activation kinetics; therefore, 15–500 ms-long pulses were applied to maximize the open probability of Kv1.2 channel. CboK peptide toxins were dissolved in a freshly prepared extracellular solution and applied to the whole-cell patch-clamped cells using a micro perfusion system at 200 μL/min flow rate.
# Isochronal RCF data points obtained this way (isochronal RCF = I4ms/I4ms,0 where I4ms,0 and I4ms are the currents at 4 ms time point in the absence and presence of CboK peptides, respectively) at different toxin concentrations were fitted with the Hill equation to obtain concentration–response curves as shown in Figure 6H.
# Human peripheral venous blood was acquired from anonymous healthy volunteers from the blood bank. Blood samples were collected by having approval from the Ethical Committee of the Hungarian Medical Research Council (36255-6/2017/EKU). PBMCs were separated by Histopaque 1077 (Sigma-Aldrich, Budapest, Hungary) separation technique, and isolated cells, at the density of 5 × 10^5 cells, were cultured in RPMI 1640 media (Gibco, Grand Island, NY, USA) supplemented with 10% FBS (Sigma-Aldrich, Budapest, Hungary), 2 mM L-glutamine, […], and […] penicillin in a humidified incubator at 37 °C and 5% CO2 for 3–6 days. A measure of 2, 5, or 10 μg/mL of Phytohemagglutinin A (PHA) (Sigma-Aldrich, Budapest, Hungary) was added in cultured cells to activate the PBMCs and upregulate the Kv1.3 expression.
# (§2) The patch-clamp technique was used for measuring whole-cell currents in voltage-clamped mode using standard protocols. Electrophysiological recordings were acquired by using Multiclamp 700B amplifier connected to a personnel computer with an Axon Digidata1440 digitizer (Molecular Devices, Sunnyvale, CA, USA). Pipettes were pulled from GC150F-15 borosilicate capillaries (Harvard Apparatus, Kent, UK) having 3−5 MΩ tip resistance in the bath solution. All current recordings were carried out at room temperature (20−25 °C) and only those currents were recorded and subjected to analyses when the leak current at holding potential was <5% of peak current at the test potential. Current traces were lowpass-filtered by utilizing the built-in analog four-pole Bessel filters of the amplifiers and were sampled at 20 kHz which is at least twice the filter cut-off frequency. A gravity-driven perfusion system was used to perfuse the cells with control and test solutions and excess fluid was removed continuously through vacuum suction.
# [3] = molecular target: T2, hKv1.1 (Homo sapiens, UniProt Q09470); assay: Whole-cell patch-clamp of Kv1.1 currents in transiently transfected CHO cells; format: cell-based; details: for effect on Kv1.1 currents: 100 nM toxin; for Kd: this study, screened at 100 nM, read-out: Kd Values Kv1.1 (symbol)
# T2 construct: host or cells: CHO cells, transient transfection (Lipofectamine 2000)
# T2 sequence (Q09470 whole entry): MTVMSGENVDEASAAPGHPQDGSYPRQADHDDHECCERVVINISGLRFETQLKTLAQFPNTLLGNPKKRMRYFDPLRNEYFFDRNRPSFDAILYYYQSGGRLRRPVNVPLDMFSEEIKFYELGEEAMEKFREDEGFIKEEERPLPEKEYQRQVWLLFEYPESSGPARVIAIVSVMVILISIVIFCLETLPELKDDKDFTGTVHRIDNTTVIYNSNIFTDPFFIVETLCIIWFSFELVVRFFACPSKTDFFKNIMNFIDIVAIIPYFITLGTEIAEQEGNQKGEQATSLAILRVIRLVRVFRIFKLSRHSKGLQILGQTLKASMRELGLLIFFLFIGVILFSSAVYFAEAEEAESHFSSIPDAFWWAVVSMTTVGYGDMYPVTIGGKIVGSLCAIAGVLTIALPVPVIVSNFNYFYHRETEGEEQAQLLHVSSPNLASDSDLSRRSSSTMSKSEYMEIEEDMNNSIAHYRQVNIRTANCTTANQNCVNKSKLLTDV
# Protocol: as §1
# (§3) CHO cells were transiently transfected by using Lipofectamine 2000 kit (Invitrogen, Carlsbad, CA, USA), as per the manufacturer’s protocol with vector pCMV6-AC-GFP (cat# RG211000 and RC222200; OriGene Technologies, Rockville, MD, USA) encoding hKv1.1 (hKCNA1 gene) or hKv1.2 (hKCNA2 gene) ion channels. Cells were grown under standard conditions in an incubator at 37 °C and 5% CO2 for 24 h. GFP-positive transfected cells were identified by utilizing a Nikon TMS fluorescence microscope (Nikon, Tokyo, Japan) using bandpass filters of 455–495 nm and 515–555 nm for excitation and emission, respectively.
# as §2, with “suction. The extracellular solution (bath solution) contained 145 mM NaCl, 5.5 mM glucose, 5 mM KCl, 2.5 mM CaCl2, 1 mM MgCl2, and 10 mM HEPES, having pH of 7.35 and an osmolarity between 302 and 308 mOsM/L. Toxins were dissolved in bath solution at different molar concentrations and supplemented with 0.1 mg/mL of bovine serum albumin BSA (Sigma-Aldrich, Budapest, Hungary). The intracellular solution (pipette filling) was comprised of 140 mM KF, 2 mM MgCl2, 1 mM CaCl2, 10 mM HEPES, and 11 mM EGTA, with a pH of 7.22 and an osmolarity of ~295 mOsM/L.” for “suction.”
# (§4) Generally, to evoke the Kv1.xcurrents, 15-ms-long depolarization pulses to +50 mV from a holding potential of −120 mV were applied, and the current traces were recorded after every 15 s. However, in the case of Kv1.2, due to its variable activation kinetics, the duration of the depolarization pulse was set between 15 and 500 ms to attain the saturated peak current.
# [4] = molecular target: T3, hKv1.2 (Homo sapiens, UniProt P16389); assay: Whole-cell patch-clamp of Kv1.2 currents in transiently transfected CHO cells; format: cell-based
# T3 construct: GFP (C); host or cells: CHO cells, transient transfection (Lipofectamine 2000)
# T3 sequence (P16389 whole entry): as the sequence (P16389 whole entry) above
# Protocol: as §1, §3
# as §2, with “suction. The extracellular solution (bath solution) contained 145 mM NaCl, 5.5 mM glucose, 5 mM KCl, 2.5 mM CaCl2, 1 mM MgCl2, and 10 mM HEPES, having pH of 7.35 and an osmolarity between 302 and 308 mOsM/L. Toxins were dissolved in bath solution at different molar concentrations and supplemented with 0.1 mg/mL of bovine serum albumin BSA (Sigma-Aldrich, Budapest, Hungary). The intracellular solution (pipette filling) was comprised of 140 mM KF, 2 mM MgCl2, 1 mM CaCl2, 10 mM HEPES, and 11 mM EGTA, with a pH of 7.22 and an osmolarity of ~295 mOsM/L.” for “suction.”
# as §4
# [5] = molecular target: Kv1.2; design: method as in 7 sources, ref 40 (CoTx1), 33 (II-x toxins), 45, 46 (Maurotoxin) ||| ref 32 (CoTx2), 33 (II-10.9), 34 (Ce3) ||| ref 33 (II-x toxins), 47, 48 (Pi4) ||| ref 33 (II-10.4), 32 (CoTx2) ||| ref 33 = [33]; PMID 26921461; doi:10.1016/j.toxicon.2016.02.017; 33. Olamendi-Portugal T. Bartok A. Zamudio-Zuñiga F. Balajthy A. Becerril B. Panyi G. Possani L.D. Isolation, chemical and functional characterization of several new K+-channel blocking peptides from ||| ...; details: cited from earlier work
# Protocol: Macroscopic Kv1.1 and Kv1.2 currents were measured in transiently transfected CHO cells.
# Sequence of CoTx1 (O46028 29-60): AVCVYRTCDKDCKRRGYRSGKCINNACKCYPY
compound,measurement,setting,value
CoTx1 (from UniProt O46028),Kd,[1],0.027 µM
"CC[C@H](C)[C@@H]1NC(=O)[C@@H]2CSSC[C@H](NC(=O)[C@H](CCCCN)NC(=O)[C@@H](NC(=O)[C@H](CC(N)=O)NC(=O)[C@@H](NC(=O)[C@@H](NC(=O)[C@@H](N)[C@@H](C)O)[C@@H](C)O)[C@@H](C)CC)C(C)C)C(=O)N[C@@H](CO)C(=O)N[C@@H](CC(C)C)C(=O)N3CCC[C@H]3C(=O)N[C@@H](CCC(N)=O)C(=O)N[C@@H](CCC(N)=O)C(=O)N[C@H]3CSSC[C@H](NC(=O)[C@H](CCCCN)NC(=O)CNC(=O)[C@H](CC(N)=O)NC1=O)C(=O)N[C@@H](CCCCN)C(=O)N[C@H](C(=O)N[C@@H](Cc1ccc(O)cc1)C(=O)N1CCC[C@H]1C(=O)O)CSSC[C@H](NC(=O)[C@@H]1CCCN1C(=O)[C@H](CCCNC(=N)N)NC(=O)[C@H](CC(C)C)NC3=O)C(=O)N[C@@H](CCCCN)C(=O)N[C@@H](CC(=O)O)C(=O)N[C@@H](CCCNC(=N)N)C(=O)N[C@@H](Cc1ccccc1)C(=O)NCC(=O)N[C@@H](CCC(N)=O)C(=O)N[C@@H](Cc1c[nH]cn1)C(=O)N[C@@H](C)C(=O)NCC(=O)NCC(=O)N[C@@H](CCCCN)C(=O)N2 [CboK6] (H-TTINVKCSLPQQCLRPCKDRFGQHAGGKCINGKCKCYP-OH; disulfide 7-29, 13-34, 17-36 (inferred); N-terminus and C-terminus assumed)","Hill coefficient H, Kv1.3 block","[2]; Hill fit of isochronal RCF (4 ms), n ≥ 3",0.77
same,Kd,"[2]; Hill fit of isochronal RCF (current at 4 ms), 15-ms pulses to +50 mV from -120 mV, n ≥ 3, read-out: Kd for Kv1.3",0.16 µM
same,effect on Kv1.1 currents,[3],does not block
same,Kd,[3],> 0.1 µM
same,Kd,"[4]; Hill fit of RCF vs toxin concentration, cumulative application, equilibrium block, pulses to +50 mV from -120 mV, n ≥ 3, read-out: Kd for Kv1.2",0.000585 µM
same,"Hill coefficient H, Kv1.2 block","[4]; Hill fit of RCF vs toxin concentration, n ≥ 3",1.3
"Charybdotoxin [ChTx, reference compound]",Kd,"[5]; no reference given, read-out: Kd for Kv1.2 (positive control concentration equivalent to Kd)",0.014 µM
same,reduction in Kv1.2 current by positive control,"[4]; 14 nM ChTx, equilibrium block",Approximately 50%
Maurotoxin,"selectivity for Kv1.2 over Kv1.1, literature","[5]; 46 (Maurotoxin), 40 (CoTx1)",~ 56 fold
same,"selectivity for Kv1.2 over Kv1.3, literature","[5]; 46 (Maurotoxin), 40 (CoTx1)",225 fold
same,Kd,"[5]; ref 40 (CoTx1), 33 (II-x toxins), 45, 46 (Maurotoxin), read-out: Kd for Kv1.2, literature",0.0008 µM
"CC[C@H](C)[C@@H]1NC(=O)[C@@H]2CSSC[C@H](NC(=O)[C@H](C)NC(=O)[C@@H](NC(=O)[C@@H](N)CC(N)=O)C(C)C)C(=O)N[C@@H](C(C)C)C(=O)N[C@@H](Cc3c[nH]cn3)C(=O)N[C@@H](CCCNC(=N)N)C(=O)N[C@@H]([C@@H](C)O)C(=O)N[C@H]3CSSC[C@H](NC(=O)[C@H](CCCCN)NC(=O)[C@H](CCCNC(=N)N)NC(=O)[C@H](CC(N)=O)NC1=O)C(=O)N[C@@H](CC(N)=O)C(=O)N[C@H](C(=O)N[C@@H](Cc1ccc(O)cc1)C(=O)N1CCC[C@H]1C(=O)N[C@@H](Cc1c[nH]cn1)C(=O)O)CSSC[C@H](NC(=O)[C@H](CC(N)=O)NC(=O)[C@H](CO)NC(=O)[C@H](CC(=O)O)NC3=O)C(=O)N[C@@H](CCCCN)C(=O)N[C@@H](CCCNC(=N)N)C(=O)N[C@@H](CC(N)=O)C(=O)NCC(=O)N[C@@H](Cc1ccc(O)cc1)C(=O)N[C@@H](CCCCN)C(=O)N[C@@H](CO)C(=O)NCC(=O)N[C@@H](CCCCN)C(=O)N2 [CboK1] (H-NVACVHRTCDSNCKRNGYKSGKCINRKCNCYPH-OH; disulfide 4-23, 9-28, 13-30)",effect on Kv1.3 currents,[2]; 100 nM toxin,did not show any effect
same,inhibition of Kv1.3 currents,"[2]; 100 nM toxin, equilibrium block, screening summary (Figure 4F), n ≥ 3",less than 4%
same,Kd,"[2]; this study, screened at 100 nM, read-out: Kd Values Kv1.3 (symbol)",> 0.1 µM
same,effect on Kv1.1 currents,[3],did not show any effect
same,Kd,[3],> 0.1 µM
same,effect on Kv1.2 currents,[4]; 100 nM toxin,totally insensitive; also recorded: did not show any effect
same,Kd,"[4]; this study, CboK1 tested at 100 nM, read-out: Kd Values Kv1.2 (symbol)",> 0.1 µM
